Source: patent publication US20100144599A1, “VEGF PATHWAY BLOCKADE” (Bristol-Myers Squibb Company, priority 2007, published 2010)

Columns and labels:
[1] = test system: Colo205 colon carcinoma; assay: Tumor inhibition, Colo-205 colon carcinoma xenogeneic s.c. model; type: in vivo, Human; conditions: 60 mg/kg, treatment started at average tumor size 200 mm^3, Kaplan Meier (FIG. 3)
Method: (§1) The anti-tumor effect of Comp-I was compared to bevacizumab treatment in a model of colon (Colo205 colon carcinoma) and brain (U87 glioblastoma) tumors.
The anti-tumor effect of Comp-I was also compared to treatment with sunitinib and sorafenib in a Colo205 colon carcinoma model. FIG. 3 depicts a Kaplan Meier Survival analysis on the length of time for individual tumors to reach a given size. […] All three compounds were administered at 60 mg/kg.

[2] = Toxicity study in the Colo205 colon carcinoma model; type: in vivo; conditions: sunitinib 60 mg/kg/day, sorafenib 80 mg/kg/day
Method: An additional study was performed using the Colo205 colon carcinoma model to test the toxicity of sunitinib (60 mg/kg/day), sorafenib (80 mg/kg/day), and Comp-I (30 mg/kg/day) treatment.

[3] = Bhuyan et al., Cancer Res. 42 (1982); cited from earlier work
[4] = test system: U87 glioblastoma; assay: Tumor inhibition, U87 glioblastoma xenograft model; type: in vivo, Human; conditions: nude male mice, 30 mg/kg Comp-I or 5 mg/kg bevacizumab bi-weekly, 20 days (FIG. 2)
Method: The effect of Comp-I and bevacizumab treatment was assessed in a U87 xenograft model of human glioblastoma (FIG. 2). Briefly, nude male mice, 6-7 weeks of age, were implanted with U87 glioblastoma tumor cells (5×10^6) subcutaneously on the right flank. Tumor growth was monitored 2 times per week using caliper measurement. Drug treatment was initiated after the tumors reached a size of at least 50 mm^3.Tumor growth inhibition over vehicle was greater in Comp-I (56%) as compared to bevacizumab (35%) treatment.
as §1

Compound	tumors remaining under 500 mm^3 [1]	mice survived [2]	potency in vitro relative to commonly used anti-cancer drugs, such as doxorubicin, methotrexate and vincristine [3]	Tumor growth inhibition over vehicle [4] [%]
CCN(CC)CCNC(=O)c1c(C)[nH]c(/C=C2\C(=O)Nc3ccc(F)cc32)c1C [sunitinib]	around 60%	12/15	–	–
CNC(=O)c1cc(Oc2ccc(NC(=O)Nc3ccc(Cl)c(C(F)(F)F)c3)cc2)ccn1 [sorafenib]	around 60%	14/15	–	–
COc1c(O)c2c(c3cc(C(=O)N4CCc5c4c(O)c(OC)c4[nH]c(C(=O)N6CC7CC78C6=CC(=O)c6[nH]cc(C)c68)cc54)[nH]c13)CCN2C(N)=O (stereo not drawn) [CC-1065]	–	–	about 1000 fold	–
bevacizumab	–	–	–	35
